The values below come from patent publication US11261179B2, “Small molecules” (University of Dundee, priority 2017, dated 2022).

By Kd is commonly meant the equilibrium constant for the complex coming apart.

“And” between values parts separate entries of the source, which are not always exact repeats. Identical values can stand only once.

Assay [1] deals with pVHL19 (VCB complex: VHL with Elongin B and Elongin C) (Homo sapiens, UniProt P40337). The experiment in a line: ITC titration against VCB, short VHL isoform. It counts as binding. The protocol: Titrations were performed on an ITC200 micro-calorimeter (GE Healthcare). […] The final DMSO concentration was 0.15% v/v. VBC protein experiments were carried out in a buffer containing 20 mM Bis-tris propane, 150 mM NaCl, 1 mM TCEP, 0.15% v/v DMSO, pH 7.4. The titrations consisted of 19 injections of 2 μL compounds solution (150 μM, in the syringe) at a rate of 2 s/μL at 120 s time intervals into the VCB protein solution (20 μM, in the cell). An initial injection of compound solution (0.4 μL) was made and discarded during data analysis. All experiments were performed at 25° C., whilst stirring the syringe at 600 rpm. The data were fitted to a single binding site model to obtain the stoichiometry n, the dissociation constant Kd and the enthalpy of binding ΔH using the Microcal LLC ITC200 Origin software provided by the manufacturer.
In general terms: ITC needs no label: the signal is the heat of the interaction.

Assay [2] concerns the target T1, VCB (biotinylated VCB and His-VCB) (Homo sapiens, UniProt P40337).
T1 construct: His tag (printed 'Hiss-VCB'); biotin (chemical labelling with NHS-PEG4-biotin); on the other VCB population
Put plainly: AlphaLISA proximity assay of ternary complex formation. Type of assay: binding. The following applies: VCB 20 nM each, 0.5 to 200 nM Homo-PROTAC. As for the experimental part:
The VCB complex was mixed with EZ-link NHS-PEG4-biotin (Thermo Scientific) in a 1:1 molar ratio and incubated at room temperature for 1 h. The reaction was quenched using 1 M Tris-HCl, pH 7.5, and unreacted NHS-biotin was removed with a PD-10 MiniTrap desalting column (GE Healthcare) equilibrated with 20 mM HEPES, pH 7.5, 150 mM NaCl and 1 mM DTT.
All assays were performed at room temperature in 384-well plates with a final assay volume of 25 μL per well; plates were sealed with transparent film between addition of reagents. All reagents were prepared as 5× stocks diluted in 50 mM HEPES, pH 7.5, 100 mM NaCl, 0.1% (w/v) bovine serum albumin and 0.02% (w/v) 3-[(cholamidopropyl)dimethylammonio]-1-propanesulfonate (CHAPS). Biotinylated VCB (20 nM final) and Hiss-VCB (20 nM final) were incubated with a range of Homo-PROTAC concentrations (0.5 to 200 nM; three-in-five serial dilution) for 1 h. Anti-His acceptor beads (PerkinElmer, 10 μg/mL final) were added and plates were incubated for another hour. Streptavidin-coated donor beads (PerkinElmer, 10 μg/mL final) were added and plates were incubated for a final 1 h. Plates were read on a PHERAstar FS (BMG Labtech) using an optic module with an excitation wavelength of 680 nm and emission wavelength of 615 nm. Intensity values were plotted against PROTAC concentration on a logo scale.
Background: Bead proximity is the source of the signal in Alpha formats.

In assay [3] the test system is HIF-dependent luciferase activity (HeLa-HRE and U2OS-HRE cells). The experiment in a line: HRE-luciferase reporter assay. It counts as cell-based, Human. The following applies: different concentrations and times. The protocol: It was performed essentially as described by Frost et al.^34 Briefly, cells (HeLa and U2OS) stably expressing an HRE-luciferase reporter were treated for the indicated times with compounds. Cells were harvested in passive lysis buffer (Promega) and subjected to three freeze-thaw cycles. The soluble lysate fraction was used for assays, performed according to the manufacturer's instructions (Promega) using a Berthold Lumat LB 9507 Luminometer. Results were normalized for protein concentration, and reported as mean±s.e.m. from three biological replicates.
A general note: In a reporter assay the amount or activity of a reporter protein is the signal.

Assay [4] has as its target VCB complex (Homo sapiens, UniProt P40337). Put plainly: Size exclusion chromatography of VCB complex formation. The note with it: SEC, VCB 50 μM, compound 30 μM. Type of assay: binding. As for the experimental part: SEC experiments were carried out in a AKTA pure system (GE Healthcare) at room temperature. The oligomeric state of the VCB complex in solution was analyzed by gel filtration in a buffer containing 20 mM Bis-Tris (pH 7), 150 mM NaCl and 1 mM 1,4-dithiothreitol (DTT) using a Superdex 200 Increase 10/300 GL column (GE Healthcare) calibrated with globular proteins of known molecular weight (GE Healthcare, 28-4038-41/42). […] Sample volume for each injection was 200 μL, and the flow rate was 0.5 mL/min. Peak elution was monitored using ultraviolet absorbance at 280 nm.

Sequence of pVHL19 (VCB complex: VHL with Elongin B and Elongin C) (P40337 54-213): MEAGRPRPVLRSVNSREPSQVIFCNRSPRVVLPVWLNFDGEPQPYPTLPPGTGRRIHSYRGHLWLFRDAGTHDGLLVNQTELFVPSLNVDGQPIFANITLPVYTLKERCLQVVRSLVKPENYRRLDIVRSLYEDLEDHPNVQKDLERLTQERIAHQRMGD
Sequence of pVHL19 (VCB complex: VHL with Elongin B and Elongin C) (Q15370 1-104 partner limits assumed): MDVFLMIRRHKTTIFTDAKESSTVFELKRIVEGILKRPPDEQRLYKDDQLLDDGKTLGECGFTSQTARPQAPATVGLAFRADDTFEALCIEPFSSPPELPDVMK
Sequence of pVHL19 (VCB complex: VHL with Elongin B and Elongin C) (Q15369 17-112 partner limits assumed): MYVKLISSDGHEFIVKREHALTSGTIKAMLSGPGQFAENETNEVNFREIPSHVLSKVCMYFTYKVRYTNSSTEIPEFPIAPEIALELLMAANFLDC
Sequence of VCB complex (P40337 54-213 limits assumed): as the sequence (P40337 54-213) above
Sequence of VCB complex (Q15370 1-104 partner limits assumed): as the sequence (Q15370 1-104 partner limits assumed) above
Sequence of VCB complex (Q15369 17-112 partner limits assumed): as the sequence (Q15369 17-112 partner limits assumed) above
T1 sequence (P40337 54-213 limits assumed): as the sequence (P40337 54-213) above
T1 sequence (Q15370 1-104 partner limits assumed): as the sequence (Q15370 1-104 partner limits assumed) above
T1 sequence (Q15369 17-112 partner limits assumed): as the sequence (Q15369 17-112 partner limits assumed) above

Turning to `Cc1ncsc1-c1ccc(CNC(=O)[C@@H]2C[C@@H](O)CN2C(=O)[C@@H](NC(=O)COCCOCCOCCOCCOCCOCC(=O)N[C@H](C(=O)N2C[C@H](O)C[C@H]2C(=O)NCc2ccc(-c3scnc3C)cc2)C(C)(C)C)C(C)(C)C)cc1` [CM11, N^1,N^20-bis((S)-1-((2S,4R)-4-hydroxy-2-((4-(4-methylthiazol-5-yl)benzyl)carbamoyl)pyrrolidin-1-yl)-3,3-dimethyl-1-oxobutan-2-yl)-3,6,9,12,15,18-hexaoxaicosanediamide], in assay [1] (ITC against VCB), the “apparent binding enthalpy ΔH” value was -12.3 kcal/mol, the “avidity (cooperativity α) compared to VH032” value is over 18 fold and the “entropic term −TΔS” value amounted to 1.4 kcal/mol. Besides, in assay [1] (ITC, pVHL19), the Kd worked out at 11 ± 2 nM, the ΔG was -10.9 ± 0.1 kcal/mol, the ΔH was -12.3 ± 0.7 kcal/mol and the “α (cooperativity/avidity)” value is 18. For the same compound, the “−TΔS” value in assay [1] (ITC, pVHL19) amounted to 1.4 ± 0.8 kcal/mol. The “n (stoichiometry)” value in assay [1] (ITC, pVHL19, 25° C.) was 0.6 and 0.6 ± 0.01. For the same compound, in assay [2], the “AlphaLISA intensity signal / complex formation” value is “highest intensity signal”. For the same compound, in assay [3], the “HIF-dependent luciferase activity relative to DMSO” value is listed as “no increase in HIF-dependent luciferase activity was detected”. In assay [4], the “molecular weight of species of shifted peak” value is reported as about 90 kDa and the “shift of VCB peak / ternary complex formation” value is on record as “migrates more quickly”.
